Measured values from patent US4172148A, “Ruminant feeds containing trichloroethyl esters of essential amino acids” (E. R. Squibb & Sons, Inc., priority 1978, dated 1979).

Tests used:
[1] = test system: volatile fatty acid concentrations in fistulated sheep; experiment: volatile fatty acid concentrations in vivo in fistulated sheep, 227 g concentrate and 680 g alfalfa hay (Examples 5 and 8); conditions: for Acetic:propionic ratio / Other acids (%) / Butyric acid (%) / Propionic acid (%) / Acetic acid (%) / Total acids: day 7
Description: (§1) Mature sheep (wethers) fitted with permanent rumen fistulae were used to determine the effect of L-phenylalanine, 2,2,2-trichloroethyl ester on volatile fatty acid concentrations in vivo (3 wethers per treatment). The animals were individually penned and fed 227 g. of concentrate (described in Example 3) and 680 g. of alfalfa hay once daily. The test compound was admixed with the concentrate. The sheep were medicated for 7 days. Samples for analysis were obtained before (Day 0) and after treatment (Day 7) approximately 6 hours after feeding.

[2] = test system: volatile fatty acid concentrations in the rumen of fistulated wethers; experiment: volatile fatty acid concentrations in the rumen of fistulated wethers, 454 g concentrate and 454 g chopped mixed hay (Example 6); type: in vivo, sheep; conditions: for Acetic:propionic ratio / Other acids (%) / Propionic acid (%) / Butyric acid (%) / Acetic acid (%) / Total acids: day 7
Description: as §1
An experiment similar to that described in Example 5 was performed except that the animals (3 per treatment) were fed 454 g. of concentrate (described in Example 3) and 454 g. of chopped mixed (grasses) hay.

## Br.N[C@@H](Cc1ccccc1)C(=O)OCC(Cl)(Cl)Cl [L-Phenylalanine 2,2,2-trichloroethyl ester, hydrobromide]
[1]; 200 mg/head/day, pretreatment 3.52, control day 7 3.56
  Acetic:propionic ratio: 3.11
[1]; 200 mg/head/day, pretreatment 5.4, control day 7 5.5
  Other acids (%): 5.8%
[1]; 200 mg/head/day, pretreatment 12.8, control day 7 15.5
  Butyric acid (%): 15.1%
[1]; 200 mg/head/day, pretreatment 18.2, control day 7 17.4
  Propionic acid (%): 19.3%
[1]; 200 mg/head/day, pretreatment 63.7, control day 7 61.6
  Acetic acid (%): 59.7%
[1]; 200 mg/head/day, pretreatment 657, control day 7 698
  Total acids: 667 mg/100 ml.
[1]; 500 mg/head/day, pretreatment 3.39, control day 7 3.56
  Acetic:propionic ratio: 2.43
[1]; 500 mg/head/day, pretreatment 5.7, control day 7 5.5
  Other acids (%): 8.1%
[1]; 500 mg/head/day, pretreatment 12.7, control day 7 15.5
  Butyric acid (%): 18.0%
[1]; 500 mg/head/day, pretreatment 18.6, control day 7 17.4
  Propionic acid (%): 21.5%
[1]; 500 mg/head/day, pretreatment 63.1, control day 7 61.6
  Acetic acid (%): 52.5%
[1]; 500 mg/head/day, pretreatment 614, control day 7 698
  Total acids: 624 mg/100 ml.
[1]; fistulated sheep, 7 days
  effect on acetic:propionic ratio (in words): decreased the acetic:propionic ratio
  effect on proportion of propionic acid (in words): increased the proportion of propionic acid
[2]; 200 mg/head/day, pre-treatment 3.38, control day 7 3.54
  Acetic:propionic ratio: 2.65
[2]; 200 mg/head/day, pre-treatment 5.2, control day 7 6.6
  Other acids (%): 8.2%
[2]; 200 mg/head/day, pre-treatment 17.5, control day 7 16.2
  Propionic acid (%): 19.0%
[2]; 200 mg/head/day, pre-treatment 18.4, control day 7 20.0
  Butyric acid (%): 22.5%
[2]; 200 mg/head/day, pre-treatment 58.8, control day 7 57.3
  Acetic acid (%): 50.3%
[2]; 200 mg/head/day, pre-treatment 731, control day 7 687
  Total acids: 663 mg/100 ml
[2]; 500 mg/head/day, pre-treatment 3.43, control day 7 3.54
  Acetic:propionic ratio: 2.18
[2]; 500 mg/head/day, pre-treatment 6.7, control day 7 6.6
  Other acids (%): 9.8%
[2]; 500 mg/head/day, pre-treatment 16.8, control day 7 16.2
  Propionic acid (%): 21.1%
[2]; 500 mg/head/day, pre-treatment 19.0, control day 7 20.0
  Butyric acid (%): 23.5%
[2]; 500 mg/head/day, pre-treatment 57.5, control day 7 57.3
  Acetic acid (%): 45.7%
[2]; 500 mg/head/day, pre-treatment 851, control day 7 687
  Total acids: 734 mg/100 ml
[2]; fistulated wethers, 7 days
  effect on acetic:propionic ratio (in words): decreasing the acetic:propionic ratio
  effect on proportion of propionic acid (in words): effective in increasing the proportion of propionic acid
